Source: EP2125859B1, “ESTRATRIENE DERIVATIVES AND THEIR USES AS 17BETA-HYDROXYSTEROID DEHYDROGENASE INHIBITORS” (Abbott Products GmbH, priority 2006, dated 2008)

What was measured:
[1] = target: T1, recombinant human 17β-HSD1 (Homo sapiens, UniProt P14061); assay: Inhibition of recombinant human 17β-HSD1 (HPLC assay, conversion of 3H-estrone to estradiol); assay type: biochemical; conditions: 0.5 h, 30 nM 3H-estrone, 1 mM NADPH, 30 min at RT, read-out: inhibition of rec. 17β-HSD1; for inhibition at 0.1 µM: 100 nM inhibitor; for inhibition at 1 µM: 1 µM inhibitor
T1 construct: made in house; host or cells: Sf9 insect cells (baculovirus, Bac to Bac Expression System)
T1 sequence (P14061 1-328): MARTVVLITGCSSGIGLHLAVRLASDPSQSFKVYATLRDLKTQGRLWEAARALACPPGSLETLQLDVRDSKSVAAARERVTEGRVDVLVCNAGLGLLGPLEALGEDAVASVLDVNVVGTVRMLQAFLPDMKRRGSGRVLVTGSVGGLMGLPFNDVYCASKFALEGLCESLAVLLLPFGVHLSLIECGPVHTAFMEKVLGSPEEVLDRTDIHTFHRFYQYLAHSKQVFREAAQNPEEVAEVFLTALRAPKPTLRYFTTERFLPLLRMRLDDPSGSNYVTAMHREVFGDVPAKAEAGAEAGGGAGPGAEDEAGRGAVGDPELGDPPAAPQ
Method: Inhibition of the 17β-hydroxysteroid dehydrogenase type 1 enzyme 17β-HSD1 purification: Recombinant baculovirus was generated by the "Bac to Bac Expression System" (Invitrogen). Recombinant bacmid was transfected to Sf9 insect cells using "Cellfectin Reagent" (Invitrogen). 60h later cells were harvested; the microsomal fraction was isolated as described by Puranen et al. (1994). Aliquots were stored frozen until determination of enzymatic activity.
Assay - Inhibition of recombinant human 17β-HSD1: Recombinant protein (0.1 µg/ml) was incubated in 20 mM KH2PO4 pH 7.4 with 30 nM 3H-estrone and 1 mM NADPH for 30 min at RT, in the presence of potential inhibitors at concentrations of 1 µM or 0.1 µM. Inhibitor stock solutions were prepared in DMSO. Final concentration of DMSO was adjusted to 1 % in all samples. The enzyme reaction was stopped by addition of 10 % trichloroacetic acid (final concentration). Samples were centrifuged in a microtiter plate at 4000 rpm for 10 min. Supernatants were applied to reverse phase HPLC on a Waters Symmetry C18 column, equipped with a Waters Sentry Guard column. Isocratic HPLC runs were performed at RT at a flow rate of 1 ml/min of acetonitrile:water 48:52 as running solvent. Radioactivity was monitored in the eluate by a Packard Flow Scintillation Analyzer. Total radioactivity for estrone and estradiol were determined in each sample and percent conversion of estrone to estradiol was calculated according to the following formula: [formula] [formula]
The values "% inhibition" were determined for exemplified compounds, and the results are summarized in table 4 (for 17β-HSD1). table 4: HSD 1 inhibition values in % of selected compounds of formula I

17β-HSD3 = target: T2, 17β-HSD3 (Homo sapiens, UniProt P37058); assay: Inhibition of 17β-HSD3 in MCF-7 cell lines stably expressing the enzyme (HPLC, tritium labeled androstenedione); assay type: cell-based; conditions: MCF7, MCF-7 cells expressing 17β-HSD3, androstenedione 2 nM
T2 construct: expressed in transfected cells; host or cells: MCF-7 cells stably expressing 17β-HSD3
T2 sequence (P37058 1-310): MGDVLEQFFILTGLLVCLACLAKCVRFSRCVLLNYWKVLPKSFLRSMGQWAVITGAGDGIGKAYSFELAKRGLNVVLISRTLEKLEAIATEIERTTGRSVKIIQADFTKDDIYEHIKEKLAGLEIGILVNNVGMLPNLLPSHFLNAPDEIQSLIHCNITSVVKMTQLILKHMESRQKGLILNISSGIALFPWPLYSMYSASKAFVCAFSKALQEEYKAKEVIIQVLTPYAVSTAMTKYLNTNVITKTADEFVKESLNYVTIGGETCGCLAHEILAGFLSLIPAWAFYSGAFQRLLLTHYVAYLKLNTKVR
Method: The compounds were screened in respect of 17β-HSD3 enzyme activity in vitro on established MCF-7 cell lines, each stably expressing the 17β-HSD3 enzyme. The interconversion of substrate by 17β-HSD3 and the 17β-HSD3 inhibiting activity of chemical compounds in these cell lines were detected by HPLC system.
Varying amounts of the test compounds were incubated in the growth medium of the 17β-HSD3 expressing cells together tritium labeled androstenedione (2 nM). The medium samples were removed after exact incubation time and the reaction is stopped by trichloroacetic acid (TCA). The samples were analyzed by HPLC-coupled flow scintillation analysis.
Conversion: The 17β-HSD3 inhibiting activity of an individual test compound was calculated by comparing the conversion of a control sample without any test compound (referred to as "Negative Control") to the (reduced) conversion of the test sample containing the particular compound to be tested (referred to as "Test Sample"). [formula]
Two concentrations of each compound were used. The number of the compound refers to the numbers indicated in the Experimental Section.
The values "% inhibition" were determined for exemplified compounds, and the results are summarized in table 5 (HSD 3). table 5: 17β-HSD3 inhibition values in % of selected compounds of formula I

| SMILES | inhibition at 0.1 µM [1] [%] | inhibition at 1 µM [1] [%] | inhibition at 10 µM (17β-HSD3) [%] | inhibition at 1 µM (17β-HSD3) [%] |
| --- | --- | --- | --- | --- |
| CC(C)Cc1cn(CC[C@@H]2CC(=O)[C@@]3(C)CC[C@@H]4c5ccc(O)cc5CC[C@H]4[C@H]23)nn1 [Compound 12, 3-Hydroxy-15β-[2-(4-iso-butyl-[1,2,3]triazol-1-yl)-ethyl]-estra-1,3,5(10)-trien-17-one] | 86 | 92 | 37 |  |
| CCCCn1cc(CCCC2CC(=O)[C@@]3(C)CC[C@@H]4c5ccc(O)cc5CC[C@H]4[C@H]23)nn1 (stereo partly drawn) [Compound 300, 15-[3-(1-butyl-1H-1,2,3-triazol-4-yl)propyl]-3-hydroxyestra-1(10),2,4-trien-17-one] | 85 | 88 | 61 | 29 |
| CC(C)CCc1cn(CCC[C@@H]2CC(=O)[C@@]3(C)CC[C@@H]4c5ccc(O)cc5CC[C@H]4[C@H]23)nn1 [Compound 17, 3-Hydroxy-15β-{3-[4-(3-methyl-butyl)-[1,2,3]triazol-1-yl]-propyl}-estra-1,3,5(10)-trien-17-one] | 61 | 88 | 50 | 3 |
| CC(C)CCc1cn(CC[C@@H]2CC(=O)[C@@]3(C)CC[C@@H]4c5ccc(O)cc5CC[C@H]4[C@H]23)nn1 [Compound 4, 3-Hydroxy-15β-{2-[4-(3-methyl-butyl)-[1,2,3]triazol-1-yl]-ethyl}-estra-1,3,5(10)-trien-17-one] | 92 | 96 | 40 | 5 |
| C[C@]12CC[C@@H]3c4ccc(O)cc4CC[C@H]3[C@@H]1[C@@H](CCCn1cc(-c3cccc(O)c3)nn1)CC2=O [Compound 22, 3-Hydroxy-15-[3-(4-m-hydroxyphenyl-[1,2,3]triazol-1-yl)-propyl]-13-methyl-6,7,8,9,11,12,13,14,15,16-decahydro-cyclopenta[a]phenanthren-17-one] | 48 | 86 |  | 82 |
| CC(C)Cc1cn(CCC[C@@H]2CC(=O)[C@@]3(C)CC[C@@H]4c5ccc(O)cc5CC[C@H]4[C@H]23)nn1 [Compound 24, 3-Hydroxy-15β-[3-(4-iso-butyl-[1,2,3]triazol-1-yl)-propyl]-estra-1,3,5(10)-trien-17-one] | 52 | 85 | 64 | 24 |
| C[C@]12CC[C@@H]3c4ccc(O)cc4CC[C@H]3[C@@H]1[C@H](CCCc1cn(-c3ccc(F)cc3F)nn1)CC2(F)F [Compound 302, 15-{3-[1-(2,4-difluorophenyl)-1H-1,2,3-triazol-4-yl]propyl}-17,17-difluoroestra-1(10),2,4-trien-3-ol] | 88 | 96 | 70 | 13 |
| C[C@]12CC[C@@H]3c4ccc(O)cc4CC[C@H]3[C@@H]1[C@H](CCn1cc(CC3CCCCC3)nn1)CC2=O [Compound 6, 3-Hydroxy-15β-[2-(4-cyclohexylmethyl-[1,2,3]triazol-1-yl)-ethyl]-estra-1,3,5(10)-trien-17-one] | 92 | 94 | 50 | 16 |
